Measured values as given in patent US20260325533A1, “CDK INHIBITOR COMPOUNDS” (ALEKSIA THERAPEUTICS, INC., priority 2023, published 2026).
Read-outs that look alike come from different tables or passages of the source.

Key:
Type in all cases: biochemical
CDK2/CCNE1 = CDK2/CCNE1 (Homo sapiens, UniProt P24941); experiment: CDK2 homogeneous time-resolved fluorescence (HTRF) kinase assay; conditions: CDK2/CCNE
How it was run: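 3 nM CDK2/CCNE1 was preincubated with compound for 20 min at 23 °C in HEPES buffer (pH not stated), then reacted 60 min with 1 mM ATP and 50 nM ULight-4E-BP1 (Thr37/46) peptide. After EDTA stop, Eu-anti-phospho-4E-BP1 antibody (2 nM) was added for 60 min and TR-FRET read at 665 nm.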

CDK1/CCNB1 = CDK1/CCNB1 (Homo sapiens, UniProt P06493); experiment: CDK1 homogeneous time-resolved fluorescence (HTRF) kinase assay; conditions: CDK1/CCNB
CDK1/CCNB1, sequence (P06493 whole entry): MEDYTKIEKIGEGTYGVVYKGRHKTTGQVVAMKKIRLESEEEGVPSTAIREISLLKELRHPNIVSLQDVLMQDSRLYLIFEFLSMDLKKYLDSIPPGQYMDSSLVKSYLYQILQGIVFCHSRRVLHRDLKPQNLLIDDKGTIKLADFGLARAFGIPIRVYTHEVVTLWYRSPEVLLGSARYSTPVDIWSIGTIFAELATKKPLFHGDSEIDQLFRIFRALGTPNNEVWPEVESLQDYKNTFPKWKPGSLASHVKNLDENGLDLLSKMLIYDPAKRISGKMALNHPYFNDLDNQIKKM
CDK1/CCNB1, sequence (P14635 whole entry partner): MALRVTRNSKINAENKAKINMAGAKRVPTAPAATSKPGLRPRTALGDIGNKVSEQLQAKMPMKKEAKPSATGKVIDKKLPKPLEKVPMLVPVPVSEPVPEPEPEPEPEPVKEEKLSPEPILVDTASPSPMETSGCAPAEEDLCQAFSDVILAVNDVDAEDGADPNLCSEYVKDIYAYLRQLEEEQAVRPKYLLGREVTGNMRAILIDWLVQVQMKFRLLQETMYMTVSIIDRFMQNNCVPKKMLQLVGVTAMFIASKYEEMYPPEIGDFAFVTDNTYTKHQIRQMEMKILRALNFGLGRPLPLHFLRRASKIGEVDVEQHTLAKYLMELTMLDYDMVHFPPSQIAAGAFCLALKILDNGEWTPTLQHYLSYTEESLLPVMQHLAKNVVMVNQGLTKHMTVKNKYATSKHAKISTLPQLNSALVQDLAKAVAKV
How it was run: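 High-ATP (1 mM) HTRF assay with 0.5 nM CDK1/cyclin B1 and 50 nM ULight-4E-BP1 (Thr37/46) substrate, 60 min at 23 °C after 20-min compound preincubation. IC50 values come from dose-response curves.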

CDK4/CCND3 = CDK4/CCND3 (Homo sapiens, UniProt P11802); experiment: CDK4 homogeneous time-resolved fluorescence (HTRF) kinase assay; conditions: CDK4/CCND
CDK4/CCND3, sequence (P11802 whole entry): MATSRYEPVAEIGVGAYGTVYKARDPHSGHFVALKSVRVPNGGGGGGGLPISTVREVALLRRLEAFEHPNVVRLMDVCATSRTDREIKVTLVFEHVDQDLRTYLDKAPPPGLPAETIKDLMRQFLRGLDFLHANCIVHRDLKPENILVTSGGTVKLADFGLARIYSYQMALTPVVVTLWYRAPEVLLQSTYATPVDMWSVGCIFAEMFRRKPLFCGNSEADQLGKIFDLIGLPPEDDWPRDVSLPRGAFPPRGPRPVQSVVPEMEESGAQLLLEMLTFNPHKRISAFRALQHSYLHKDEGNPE
CDK4/CCND3, sequence (P30281 whole entry partner): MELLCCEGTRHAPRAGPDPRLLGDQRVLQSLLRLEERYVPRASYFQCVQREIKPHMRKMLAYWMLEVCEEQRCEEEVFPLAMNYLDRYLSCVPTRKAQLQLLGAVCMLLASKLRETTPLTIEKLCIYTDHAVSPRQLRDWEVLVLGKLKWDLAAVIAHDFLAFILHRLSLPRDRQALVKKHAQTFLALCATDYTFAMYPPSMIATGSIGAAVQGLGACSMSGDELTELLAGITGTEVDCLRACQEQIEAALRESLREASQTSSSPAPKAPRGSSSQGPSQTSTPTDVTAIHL
How it was run: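 CDK4/CCND3 at 1.5 nM was preincubated with compound for 20 min at 23 °C, then reacted for 60 min with 1 mM ATP and 50 nM ULight-4E-BP1 (Thr37/46) peptide. The reaction was stopped with EDTA, and phosphorylation was read by HTRF with a Eu-anti-phospho antibody. IC50 values came from 11-point half-log titrations, typically from 10 μM.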

CDK6/CCND1 = CDK6/CCND1 (Homo sapiens, UniProt Q00534); experiment: CDK6 homogeneous time-resolved fluorescence (HTRF) kinase assay; conditions: CDK6/CCND, 1 mM ATP
CDK6/CCND1, sequence (Q00534 whole entry): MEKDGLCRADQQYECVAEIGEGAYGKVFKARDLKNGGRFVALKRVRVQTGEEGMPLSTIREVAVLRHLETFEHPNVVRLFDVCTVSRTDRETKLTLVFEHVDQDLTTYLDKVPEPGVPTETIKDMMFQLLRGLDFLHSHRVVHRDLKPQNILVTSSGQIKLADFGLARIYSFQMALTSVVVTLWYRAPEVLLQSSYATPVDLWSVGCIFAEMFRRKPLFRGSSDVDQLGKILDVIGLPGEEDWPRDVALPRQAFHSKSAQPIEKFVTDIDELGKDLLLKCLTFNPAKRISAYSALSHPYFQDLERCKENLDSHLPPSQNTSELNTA
CDK6/CCND1, sequence (P24385 whole entry partner): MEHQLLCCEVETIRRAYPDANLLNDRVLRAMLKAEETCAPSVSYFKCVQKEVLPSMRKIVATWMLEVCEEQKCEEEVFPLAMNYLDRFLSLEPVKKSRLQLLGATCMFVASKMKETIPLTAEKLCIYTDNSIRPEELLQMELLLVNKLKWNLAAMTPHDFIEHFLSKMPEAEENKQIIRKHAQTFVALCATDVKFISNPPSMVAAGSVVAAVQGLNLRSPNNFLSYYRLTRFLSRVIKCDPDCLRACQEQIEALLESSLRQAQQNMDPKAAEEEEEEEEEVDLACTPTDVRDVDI
How it was run: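 Enzyme pre-incubated 20 min at 23 °C with compound, then reacted 60 min at 23 °C with 1 mM ATP and 50 nM ULight-4E-BP1 (Thr37/46) peptide; 1 nM enzyme, 1% DMSO. EDTA-stopped, Eu-anti-phospho antibody TR-FRET read (665 nm or 665/615 ratio); 11-point half-log titration from 10 μM gave IC50.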

[1] = <25 nM, read-out: CDK2/CCNE IC50, <25 nM
[2] = >250 nM, read-out: CDK1/CCNB IC50 >250 nM
[3] = >250 nM, read-out: CDK4/CCND IC50, >250 nM
[4] = >250 nM, read-out: CDK6/CCND IC50, >250 nM
[5] = 25-250 nM, read-out: CDK2/CCNE IC50, 25-250 nM
[6] = 25-250 nM, read-out: CDK4/CCND IC50, 25-250 nM
[7] = 25-250 nM, read-out: CDK6/CCND IC50, 25-250 nM

Row | IC50 (CDK2/CCNE1; [1]) [nM] | IC50 (CDK1/CCNB1; [2]) [nM] | IC50 (CDK4/CCND3; [3]) [nM] | IC50 (CDK6/CCND1; [4]) [nM] | IC50 (CDK2/CCNE1; [5]) [nM] | IC50 (CDK4/CCND3; [6]) [nM] | IC50 (CDK6/CCND1; [7]) [nM] | IC50 (CDK1/CCNB1; 25-250 nM, read-out: CDK1/CCNB IC50, 25-250 nM) [nM] | SMILES
1 | < 25 | > 250 | > 250 | > 250 |  |  |  |  | Cc1c(-c2nccc3cnc(Nc4ccc(S(=O)(=O)Nc5ccccn5)cc4)cc23)ccc2c1cnn2CC(O)(C(F)(F)F)C(F)(F)F [Example 716, 4-((5-(4-methyl-1-(3,3,3-trifluoro-2-hydroxy-2-(trifluoromethyl)propyl)-1H-indazol-5-yl)-2,6-naphthyridin-3-yl)amino)-N-(pyridin-2-yl)benzenesulfonamide]
2 | < 25 | > 250 | > 250 | > 250 |  |  |  |  | CC[C@@H](C)NS(=O)(=O)c1ccc(Nc2cc3c(-c4ccc5c(cnn5CC(C)(C)O)c4C)nccc3cn2)cc1 [Example 721, (R)-N-(sec-butyl)-4-((5-(1-(2-hydroxy-2-methylpropyl)-4-methyl-1H-indazol-5-yl)-2,6-naphthyridin-3-yl)amino)benzenesulfonamide]
3 |  | > 250 | > 250 | > 250 | 25 to 250 |  |  |  | CN1CCN(c2cc(Nc3cc4c(C#Cc5ccc(=O)[nH]n5)nccc4cn3)cnc2O)CC1 [Example 723, 6-((7-((6-hydroxy-5-(4-methylpiperazin-1-yl)pyridin-3-yl)amino)-2,6-naphthyridin-1-yl)ethynyl)pyridazin-3(2H)-one]
4 | < 25 | > 250 |  |  |  | 25 to 250 | 25 to 250 |  | Cc1c(-c2nccc3cnc(Nc4ccc([S@@](C)(=N)=O)cc4)cc23)ccc2c1cnn2CC(O)(C(F)(F)F)C(F)(F)F [Example 724, (S)-1,1,1,3,3,3-hexafluoro-2-((4-methyl-5-(7-((4-(S-methylsulfonimidoyl)phenyl)amino)-2,6-naphthyridin-1-yl)-1H-indazol-1-yl)methyl)propan-2-ol]
5 | < 25 | > 250 |  |  |  | 25 to 250 | 25 to 250 |  | Cc1c(-c2nccc3cnc(Nc4ccc([S@](C)(=N)=O)cc4)cc23)ccc2c1cnn2CC(O)(C(F)(F)F)C(F)(F)F [Example 725, (R)-1,1,1,3,3,3-hexafluoro-2-((4-methyl-5-(7-((4-(S-methylsulfonimidoyl)phenyl)amino)-2,6-naphthyridin-1-yl)-1H-indazol-1-yl)methyl)propan-2-ol]
6 |  | > 250 | > 250 | > 250 | 25 to 250 |  |  |  | Cc1c(-c2nccc3cnc(Nc4ccc(S(=O)(=O)N(C)c5ncccn5)cc4)cc23)ccc2c1cnn2CC(O)(C(F)(F)F)C(F)(F)F [Example 732, N-methyl-4-((5-(4-methyl-1-(3,3,3-trifluoro-2-hydroxy-2-(trifluoromethyl)propyl)-1H-indazol-5-yl)-2,6-naphthyridin-3-yl)amino)-N-(pyrimidin-2-yl)benzenesulfonamide]
7 | < 25 | > 250 | > 250 |  |  |  | 25 to 250 |  | CCN(c1ncccn1)S(=O)(=O)c1ccc(Nc2cc3c(-c4ccc5c(cnn5CC(C)(C)O)c4C)nccc3cn2)cc1 [Example 733, N-ethyl-4-((5-(1-(2-hydroxy-2-methylpropyl)-4-methyl-1H-indazol-5-yl)-2,6-naphthyridin-3-yl)amino)-N-(pyrimidin-2-yl)benzenesulfonamide]
8 | < 25 | > 250 | > 250 | > 250 |  |  |  |  | Cc1c(-c2nccc3cnc(Nc4ccc(NS(=O)(=O)c5cccc(N6CCNCC6)c5)cc4)cc23)ccc2c1cnn2CC(C)(C)O [Example 752, N-(4-((5-(1-(2-hydroxy-2-methylpropyl)-4-methyl-1H-indazol-5-yl)-2,6-naphthyridin-3-yl)amino)phenyl)-3-(piperazin-1-yl)benzenesulfonamide]
9 | < 25 |  |  |  |  | 25 to 250 | 25 to 250 | 25 to 250 | Cc1c(-c2nccc3cnc(Nc4ccc(S(=O)(=O)Nc5ccc(N(C)C)nn5)cc4)cc23)ccc2c1cnn2CC(C)(C)O [Example 765, N-(6-(dimethylamino)pyridazin-3-yl)-4-((5-(1-(2-hydroxy-2-methylpropyl)-4-methyl-1H-indazol-5-yl)-2,6-naphthyridin-3-yl)amino)benzenesulfonamide]
10 |  | > 250 | > 250 | > 250 | 25 to 250 |  |  |  | Cc1c(-c2nccc3cnc(Nc4ccc(NS(=O)(=O)c5cc6ccccc6o5)cc4)cc23)ccc2c1cnn2CC(C)(C)O [Example 776, N-(4-((5-(1-(2-hydroxy-2-methylpropyl)-4-methyl-1H-indazol-5-yl)-2,6-naphthyridin-3-yl)amino)phenyl)benzofuran-2-sulfonamide]
11 | < 25 | > 250 | > 250 |  |  |  | 25 to 250 |  | Cc1c(-c2nccc3cnc(Nc4ccc(S(C)(=O)=O)cc4O)cc23)ccc2c1cnn2CC(C)(C)O [Example 784, 2-((5-(1-(2-hydroxy-2-methylpropyl)-4-methyl-1H-indazol-5-yl)-2,6-naphthyridin-3-yl)amino)-5-(methylsulfonyl)phenol]
12 |  | > 250 | > 250 | > 250 | 25 to 250 |  |  |  | Cc1c(-c2ncc(F)c3cnc(Nc4ccc(S(C)(=O)=O)cc4)cc23)ccc2c1cnn2CC(C)(C)O [Example 788, 1-(5-(4-fluoro-7-((4-(methylsulfonyl)phenyl)amino)-2,6-naphthyridin-1-yl)-4-methyl-1H-indazol-1-yl)-2-methylpropan-2-ol]
13 |  | > 250 | > 250 | > 250 | 25 to 250 |  |  |  | Cc1c(-c2nccc3cnc(Nc4ccc(S(=O)(=O)Nc5nc(C(F)(F)F)cc(C(F)(F)F)n5)cc4)cc23)ccc2c1cnn2CC(C)(C)O [Example 789, N-(4,6-bis(trifluoromethyl)pyrimidin-2-yl)-4-((5-(1-(2-hydroxy-2-methylpropyl)-4-methyl-1H-indazol-5-yl)-2,6-naphthyridin-3yl)amino)benzenesulfonamide]
14 | < 25 | > 250 | > 250 | > 250 |  |  |  |  | COc1ccc(C(=O)N2CC[C@@H](Nc3cc4c(-c5ccc6c(cnn6CC(C)(C)O)c5C)nccc4cn3)C2)cc1 [Example 790, (R)-(3-((5-(1-(2-hydroxy-2-methylpropyl)-4-methyl-1H-indazol-5-yl)-2,6-naphthyridin-3-yl)amino)pyrrolidin-1-yl)(4-methoxyphenyl)methanone]
15 |  | > 250 | > 250 | > 250 | 25 to 250 |  |  |  | CS(=O)(=O)c1ccc(Nc2cc3c(C#Cc4cnc(F)c(F)c4)nccc3cn2)cc1 [Example 852, 5-((5,6-difluoropyridin-3-yl)ethynyl)-N-(4-(methylsulfonyl)phenyl)-2,6-naphthyridin-3-amine]
16 |  | > 250 | > 250 | > 250 | 25 to 250 |  |  |  | N#Cc1ccc(C#Cc2nccc3cnc(Nc4ccc5c(c4)OCCS5(=O)=O)cc23)cc1 [Example 862, 4-((7-((4,4-dioxido-2,3-dihydrobenzo[b][1,4]oxathiin-7-yl)amino)-2,6-naphthyridin-1-yl)ethynyl)benzonitrile]
17 |  | > 250 | > 250 | > 250 | 25 to 250 |  |  |  | CN1CCN(c2ccc(C#Cc3nccc4cnc(Nc5ccc(S(=O)(=O)O)cc5)cc34)cc2)CC1 [Example 863, 4-((5-((4-(4-methylpiperazin-1-yl)phenyl)ethynyl)-2,6-naphthyridin-3-yl)amino)benzenesulfonic acid]
18 |  | > 250 | > 250 | > 250 | 25 to 250 |  |  |  | CC#Cc1nccc2cnc(Nc3ccc(S(=O)(=O)Nc4nccc(N5CCN(C)CC5)n4)cc3)cc12 [Example 877, N-(4-(4-methylpiperazin-1-yl)pyrimidin-2-yl)-4-((5-(prop-1-yn-1-yl)-2,6-naphthyridin-3-yl)amino)benzenesulfonamide]
19 | < 25 | > 250 | > 250 | > 250 |  |  |  |  | Cc1c(-c2nccc3cnc(Nc4cnc(O)c(N5CCN(CCO)CC5)c4)cc23)ccc2c1cnn2CC(C)(C)O [Example 887, 5-((5-(1-(2-hydroxy-2-methylpropyl)-4-methyl-1H-indazol-5-yl)-2,6-naphthyridin-3-yl)amino)-3-(4-(2-hydroxyethyl)piperazin-1-yl)pyridin-2-ol]
